# Experiments:
# [1] = molecular target: T1, Multidrug resistance-associated protein 1 (Homo sapiens, UniProt P33527); test: TP_TRANSPORTER: increase in Calcein intracellular accumulation (Calcein: 0.5 uM, Rifamycin SV: 200 uM) in GLC4/ADR cells; type: functional, cell-based; conditions: glc-4/adr
# [2] = molecular target: T1, Multidrug resistance-associated protein 1; test: TP_TRANSPORTER: increase in Calcein intracellular accumulation (Calcein: 0.5 uM, Rifampicin: 200 uM) in GLC4/ADR cells; type: functional, cell-based; conditions: glc-4/adr
# T1 sequence (P33527 whole entry): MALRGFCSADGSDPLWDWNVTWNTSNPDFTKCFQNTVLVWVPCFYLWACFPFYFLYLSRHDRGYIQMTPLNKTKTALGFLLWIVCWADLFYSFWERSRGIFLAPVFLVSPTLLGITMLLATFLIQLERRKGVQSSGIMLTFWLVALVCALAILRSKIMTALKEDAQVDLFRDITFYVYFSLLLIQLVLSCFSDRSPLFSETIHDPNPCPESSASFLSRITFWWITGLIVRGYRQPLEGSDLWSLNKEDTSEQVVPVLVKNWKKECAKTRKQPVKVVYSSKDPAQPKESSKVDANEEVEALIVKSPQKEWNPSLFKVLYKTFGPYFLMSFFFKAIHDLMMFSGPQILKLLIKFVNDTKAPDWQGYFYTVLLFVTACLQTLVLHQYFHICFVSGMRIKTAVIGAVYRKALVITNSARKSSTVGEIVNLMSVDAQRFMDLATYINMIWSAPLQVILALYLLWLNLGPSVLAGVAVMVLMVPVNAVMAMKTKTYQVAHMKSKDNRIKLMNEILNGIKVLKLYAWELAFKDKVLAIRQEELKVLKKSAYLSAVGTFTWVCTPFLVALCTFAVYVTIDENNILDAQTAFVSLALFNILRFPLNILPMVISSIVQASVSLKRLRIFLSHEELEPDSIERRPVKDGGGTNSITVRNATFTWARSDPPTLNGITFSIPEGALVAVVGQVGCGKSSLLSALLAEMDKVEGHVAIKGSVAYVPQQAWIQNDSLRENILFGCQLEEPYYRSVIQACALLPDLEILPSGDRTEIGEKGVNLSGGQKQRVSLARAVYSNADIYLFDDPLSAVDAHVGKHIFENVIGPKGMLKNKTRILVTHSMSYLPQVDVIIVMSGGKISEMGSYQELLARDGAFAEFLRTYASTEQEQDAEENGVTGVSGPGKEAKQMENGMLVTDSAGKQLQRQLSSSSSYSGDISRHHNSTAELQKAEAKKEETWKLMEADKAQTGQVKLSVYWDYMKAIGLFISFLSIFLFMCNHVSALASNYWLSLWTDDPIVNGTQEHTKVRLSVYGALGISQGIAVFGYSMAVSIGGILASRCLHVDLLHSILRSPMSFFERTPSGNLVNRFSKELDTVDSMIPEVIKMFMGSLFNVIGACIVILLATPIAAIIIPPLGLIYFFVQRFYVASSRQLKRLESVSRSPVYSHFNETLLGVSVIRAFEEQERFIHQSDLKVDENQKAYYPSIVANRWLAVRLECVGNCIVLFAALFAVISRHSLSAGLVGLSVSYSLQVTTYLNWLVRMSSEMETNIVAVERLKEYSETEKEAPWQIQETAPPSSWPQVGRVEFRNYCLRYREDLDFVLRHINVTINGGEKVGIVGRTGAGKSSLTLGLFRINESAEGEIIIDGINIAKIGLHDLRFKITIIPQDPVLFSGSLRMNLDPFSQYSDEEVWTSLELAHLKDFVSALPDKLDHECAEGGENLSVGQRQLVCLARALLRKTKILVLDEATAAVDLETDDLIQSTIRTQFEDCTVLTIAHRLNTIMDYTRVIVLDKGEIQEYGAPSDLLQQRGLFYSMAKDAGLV
Activity [1] [%],Activity [2] [%],SMILES
110,,CO[C@H]1/C=C/O[C@@]2(C)Oc3c(C)c(O)c4c(O)c(cc(O)c4c3C2=O)NC(=O)/C(C)=C\C=C\[C@H](C)[C@H](O)[C@@H](C)[C@@H](O)[C@@H](C)[C@H](OC(C)=O)[C@@H]1C [RIFAMYCIN]
,110,CO[C@H]1/C=C/O[C@@]2(C)Oc3c(C)c(O)c4c(O)c(c(/C=N/N5CCN(C)CC5)c(O)c4c3C2=O)NC(=O)/C(C)=C\C=C\[C@H](C)[C@H](O)[C@@H](C)[C@@H](O)[C@@H](C)[C@H](OC(C)=O)[C@@H]1C [RIFAMPIN]

# From ChEMBL document CHEMBL2074559, “Inhibition of multidrug resistance-associated protein (MRP) activity by rifampicin in human multidrug-resistant lung tumor cells” (Cancer Lett, 1999)
